Molecular target: GPR55 (Homo sapiens, UniProt Q9Y2T6)
Assay: cell rounding, dose response, GPR55-expressing vs empty-vector HEK293 cells
Assay type: cell-based

GPR55, sequence (Q9Y2T6 whole entry): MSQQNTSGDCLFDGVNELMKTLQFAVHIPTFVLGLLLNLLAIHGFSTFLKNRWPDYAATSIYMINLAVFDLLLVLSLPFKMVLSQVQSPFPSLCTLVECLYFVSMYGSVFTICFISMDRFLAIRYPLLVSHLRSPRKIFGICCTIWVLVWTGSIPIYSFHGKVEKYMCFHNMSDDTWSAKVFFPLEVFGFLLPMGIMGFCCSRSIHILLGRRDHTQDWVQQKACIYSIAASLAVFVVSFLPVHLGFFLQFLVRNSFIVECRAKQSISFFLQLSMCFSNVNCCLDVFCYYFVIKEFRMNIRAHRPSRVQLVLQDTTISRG

Compound: Cc1c(C(=O)NN2CCCCC2)nn(-c2ccc(Cl)cc2Cl)c1-c1ccc(Cl)cc1 [SR141716A]
- cell rounding, dose response, GPR55-expressing vs empty-vector HEK293 cells: cell rounding induced by AM251 and SR141716A was not observed in empty vector-transfected cells

From PMC9504244, “Lysophosphatidylinositol Induced Morphological Changes and Stress Fiber Formation through the GPR55-RhoA-ROCK Pathway” (International Journal of Molecular Sciences, 2022)
